This note sets out measurements from ChEMBL document CHEMBL2086360, “α-Glucosidase inhibitory hydrolyzable tannins from Eugenia jambolana seeds” (J Nat Prod, 2012).

The assay can be described thus: Inhibition of yeast alpha-glucosidase using p-nitrophenyl-alpha-D-glucopyranoside as substrate compound pre-incubated for 10 mins before substrate addition measured after 5 mins by microplate reader. On the set-up: species or system Saccharomyces cerevisiae.
Consider `O=C(O[C@H]1[C@H](O)[C@@H](CO)OC(O)[C@@H]1OC(=O)c1cc(O)c(O)c(O)c1Oc1cc2c(=O)oc3c(O)c(O)cc4c(=O)oc(c1O)c2c34)c1cc(O)c(O)c(O)c1` (stereo not given in full) [OENOTHEIN C], for which half-maximal inhibition (IC50) required 75.1 µM.

With `O=C(O[C@H]1[C@@H]2OC(=O)c3cc(O)c(O)c(O)c3-c3c(cc(O)c(O)c3O)C(=O)OC[C@H]2OC(O)[C@@H]1OC(=O)c1cc(O)c(O)c(O)c1Oc1cc2c(=O)oc3c(O)c(O)cc4oc(=O)c(c1O)c2c43)c1cc(O)c(O)c(O)c1` (stereo not given in full) [CORNUSSIN B], 12.2 µM corresponded to half-maximal inhibition (IC50).

On to `O=C(O[C@H]1[C@H](O)[C@@H](CO)OC(O)[C@@H]1OC(=O)c1cc(O)c(O)c(O)c1Oc1c(O)cc2c(=O)oc3c(O)c(O)cc4c(=O)oc1c2c34)c1cc(O)c(O)c(O)c1` (mixture of isomers), for which the IC50 (commonly the concentration needed to halve the response being measured) amounted to 8.2 µM.

Take `COc1cc2oc(-c3ccc(O)cc3)cc(=O)c2c(O)c1[C@@H]1O[C@H](CO)[C@@H](O)[C@H](O)[C@H]1O` [SWERTISIN]: half-maximal inhibition (IC50) required 146 µM.

With `C[C@H]1O[C@H](O[C@H]2[C@H](O)[C@@H](O)[C@@H](O[C@H]3[C@H](O)[C@@H](O)C(O)O[C@@H]3CO)O[C@@H]2CO)[C@H](O)[C@@H](O)[C@@H]1N[C@H]1C=C(CO)[C@@H](O)[C@H](O)[C@H]1O` (stereo not given in full) [ACARBOSE], half-maximal inhibition (IC50) required 209 µM.
